# Experimental data: patent US10280173B2, “Ibrutinib solid forms and production process therefor” (WAVELENGTH ENTERPRISES LTD., priority 2014, dated 2019)
# Columns and labels:
# [1] = rats; cited from earlier work
# [2] = Hygroscopicity test according to the European Pharmacopoeia, 5.11; assay type: physicochemical; conditions: 80±2% relative humidity, 25° C., 24 hours
# Protocol: The hygroscopicity test was carried out according to the European Pharmacopoeia, 5.11 Characters Section in Monographs at ambient temperature (about 25° C.) on substance “as is”.
# Desiccator with saturated ammonium chloride solution was prepared as follows: to a 100 mL of water was added accurately weighed 46.3 g of ammonium chloride under mixing. The solubility of ammonium chloride in water at ambient temperature is about 41.4 g/100 mL water at 30° C. An amount of amorphous ibrutinib was placed in a glass weighing vessel with stopper (m1) and weighed (m2). The un-stoppered vessel was placed in a desiccator containing a saturated solution of ammonium chloride (80±2% relative humidity) at 25° C. for 24 hours. The weighing vessel was stoppered and weighed (m3). The percentage increase in mass was calculated according to the following formula: […]
# The following Table 10 includes the standard defined hygroscopicity values according to the European Pharmacopoeia, 5.11 Characters Section in Monographs: […]
Structure (SMILES),oral bioavailability [1],degree of hygroscopicity [2],Increase in mass % ([2]; substance as is),Increase in mass g ([2]; m3 minus m2)
"C=CC(=O)N1CCC[C@@H](n2nc(-c3ccc(Oc4ccccc4)cc3)c3c(N)ncnc32)C1 [ibrutinib, 1-[(3R)-3-[4-amino-3-(4-phenoxyphenyl)-1H-pyrazolo[3,4-d]pyrimidin-1-yl]piperidin-1-yl]prop-2-en-1-one]",22.8%,,,
C=CC(=O)N1CCC[C@@H](n2nc(-c3ccc(Oc4ccccc4)cc3)c3c(N)ncnc32)C1 [amorphous ibrutinib],,slightly hygroscopic,1.24%,0.01077 g
